Reference: patent publication US7183061B2, “Method of expressing Heliothis ecdysone receptor fusion protein” (Syngenta Limited, priority 1996, dated 2007)

Legend:
HEcR with αRXR = test: Native HEcR reporter gene expression in HEK293 cells co-transfected with αRXR; format: cell-based, Heliothis virescens; conditions: αRXR co-transfected along with effector and reporter
From the text: A third effector construct was made with the 5′ end sequences of pSK16.1 by PCR. The PCR approach involved PCR amplifying the 5′ end sequences using a 5′ oligonucleotide containing a HindIII restriction cloning site, the Kozak consensus sequence followed by nucleotide sequence encoding for a Methionine start and two Arginines to be added to the 5′ end of the amplified fragment: (16H3K 5′ […] 3′; SEQ ID NO: 28), the 3′ oligonucleotide used was HecrNdeI. The resulting fragment was restriction enzyme digested, gel purified and subcloned with an NdeI/NotI 19R fragment into pcDNA3 NdeI/NotI vector. The plasmid was named pcDNA3H3 KHEcR.
The reporter plasmid to be co-transfected with the expression vector contained 4 copies of the Hsp27 ecdysone response element (Riddihough and Pelham, 1987) fused to β-globin promoter and the β-Galactosidase gene. The tandem repeats of the ecdysone response element were synthesised as two complementary oligonucleotides which when annealed produced a double stranded DNA molecule flanked by an SpeI site at the 5′ end and a ClaI site at the 3′ end:
The resulting 135 bp DNA fragment was ligated to the vector pSWBGAL SpeI/ClaI resulting in pSWREcR4 (FIG. 8). The co-transfection of the two plasmids should result in B-galactosidase activity in the presence of ligand. […]

[1] = molecular target: chimeric glucocorticoid VP16/Heliothis ecdysone receptor (UniProt O18473+P04150, DEL153-392/E478D/INS403[…]/INS405[…]/M398P/P396A/P400T/P406S/R399P/S397A/Y393A); test: GUS levels in transgenic tobacco progeny containing pES3 and pES4; format: in vivo, Heliothis virescens; set-up: expressed in transfected cells; stably transformed tobacco plants, pES3/pES4 (A11)
Chain of chimeric glucocorticoid VP16/Heliothis ecdysone receptor (P04150+O18473 fused with the stated changes): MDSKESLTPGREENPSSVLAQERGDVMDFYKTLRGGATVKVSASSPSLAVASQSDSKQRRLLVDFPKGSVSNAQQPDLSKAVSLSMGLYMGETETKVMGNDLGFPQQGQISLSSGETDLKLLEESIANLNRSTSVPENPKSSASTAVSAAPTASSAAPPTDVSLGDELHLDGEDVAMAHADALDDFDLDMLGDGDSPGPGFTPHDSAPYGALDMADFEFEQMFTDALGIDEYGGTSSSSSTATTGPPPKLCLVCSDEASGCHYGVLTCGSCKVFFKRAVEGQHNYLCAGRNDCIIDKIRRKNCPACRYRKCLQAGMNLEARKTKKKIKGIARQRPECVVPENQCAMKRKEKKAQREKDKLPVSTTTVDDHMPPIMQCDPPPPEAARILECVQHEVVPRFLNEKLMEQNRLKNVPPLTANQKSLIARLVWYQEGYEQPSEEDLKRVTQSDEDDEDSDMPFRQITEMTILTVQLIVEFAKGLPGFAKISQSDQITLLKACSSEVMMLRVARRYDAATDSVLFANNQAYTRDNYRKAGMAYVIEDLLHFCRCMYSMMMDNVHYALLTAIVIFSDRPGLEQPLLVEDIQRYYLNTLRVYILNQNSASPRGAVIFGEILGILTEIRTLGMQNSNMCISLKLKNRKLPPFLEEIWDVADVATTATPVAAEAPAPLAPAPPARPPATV
From the text: The methodology described below was used to produce four different stable Tobacco vectors. The method involves three steps: • 1. pbluescript SK HindIII/EcoRI vector was ligated to either GRE6-4635SCaMVGUSNOS HindIII/EcoRI (from p221.10GRE6) or GRE6-6035SCaMVGUSNOS HindIII/EcoRI (from p221.9GRE6) resulting in plasmid pSK-46 and pSK-60. • 2. This step involves the addition of the chimeric receptor (35SGRHEcRNOS or 35SGRVP16HEcRNOS) to pSK-60 or pSK-46. Thus a pSK-60 (or pSK-46) XbaI vector was ligated with either the 3.4 kb 35SGRHEcRNOS XbaI or the 3.0 kb 35SGRVP16HEcRNOS XbaI DNA fragment to produce pSKES1 (pSKGRE6-6035SCaMVGUSNOS-35SGRHEcRNOS), pSKES2 (pSKGRE6-4635 SCaMVGUSNOS-35 SGRHEcRNOS), pSKES3 (pSKGRE6-6035SCaMVGUSNOS-35SGRVP16HEcRNOS) and pSKES4 (pSKGRE6-4635SCaMVGUSNOS-35SGRVP16HEcRNOS). • 3. Transfer from pBluescript based vectors to binary vectors. […] The DNA of the recombinant was characterised by restriction mapping and the sequence of the junctions determined. […]

SMILES	induction of reporter activity compared to the untreated cells (HEcR with αRXR)	GUS levels relative to transgenic plants containing non-VP16 vectors pES1 and pES2 [1]
CC(C)CC[C@@H](O)[C@](C)(O)[C@H]1CC[C@@]2(O)C3=CC(=O)[C@]4(O)C[C@@H](O)[C@@H](O)C[C@]4(C)[C@H]3[C@H](O)C[C@]12C [Muristerone A]	9 fold	
CCc1ccc(C(=O)NN(C(=O)c2cc(C)cc(C)c2)C(C)(C)C)cc1 [RH5992, 3,5-dimethylbenzoic acid 1-1(1,1-dimethylethyl)-2(4-ethylbenzoyl)hydrazide]	9 fold	elevated GUS levels
